Experiments:
Type in all cases: in vivo
[1] = tested on: barnyardgrass (Echinochloa crus-galli); assay: Test G Pre-Emergence Protocol; details: Echinochloa crus-galli, pre-emergence, 312 h, evaluated after 13 days; for pest or weed control at 15.625 g/ha: 15.625 g ai/ha; for pest or weed control at 15.625 g/ha / pest or weed control at 250 g/ha: read-out: Barnyardgrass damage rating (100=total damage to plant; 0=no damage to plant); for pest or weed control at 62.5 g/ha: 62.5 g ai/ha, 100=total damage to plant, 0=no damage to plant, read-out: Barnyardgrass damage rating; for pest or weed control at 250 g/ha: 250 g ai/ha
Method in brief: (§1)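 Visual injury (0–100) at day 13 after a single pre-emergence spray. Rates: 15.625, 62.5, 250 g/ha in acetone–water 50:50 with 0.5% Tween 20. Growth conditions: 24/16° C, 14 h light, 65% humidity.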

[2] = tested on: redroot pigweed (Amaranthus retroflexus); assay: Test G Pre-Emergence Protocol; details: Amaranthus retroflexus, pre-emergence, 312 h, evaluated after 13 days; for pest or weed control at 15.625 g/ha: 15.625 g ai/ha; for pest or weed control at 15.625 g/ha / pest or weed control at 250 g/ha: read-out: Pigweed, Redroot damage rating (100=total damage to plant; 0=no damage to plant); for pest or weed control at 62.5 g/ha: 62.5 g ai/ha, 100=total damage to plant, 0=no damage to plant, read-out: Pigweed, Redroot damage rating; for pest or weed control at 250 g/ha: 250 g ai/ha
Method in brief: as §1

[3] = tested on: velvetleaf (Abutilon theophrasti); assay: Test G Pre-Emergence Protocol; details: Abutilon theophrasti, pre-emergence, 312 h, evaluated after 13 days; for pest or weed control at 15.625 g/ha: 15.625 g ai/ha; for pest or weed control at 15.625 g/ha / pest or weed control at 250 g/ha: read-out: Velvetleaf damage rating (100=total damage to plant; 0=no damage to plant); for pest or weed control at 62.5 g/ha: 62.5 g ai/ha, 100=total damage to plant, 0=no damage to plant, read-out: Velvetleaf damage rating; for pest or weed control at 250 g/ha: 250 g ai/ha
Method in brief: as §1

corn (Zea mays) [4] = assay: Test G Pre-Emergence Protocol; details: Zea mays, pre-emergence, 312 h, evaluated after 13 days; for plant injury at 15.625 g/ha: 15.625 g ai/ha; for plant injury at 15.625 g/ha / plant injury at 250 g/ha: read-out: Corn damage rating (100=total damage to plant; 0=no damage to plant); for plant injury at 62.5 g/ha: 62.5 g ai/ha, 100=total damage to plant, 0=no damage to plant, read-out: Corn damage rating; for plant injury at 250 g/ha: 250 g ai/ha
Method in brief: as §1

[5] = tested on: giant foxtail (Setaria faberi); assay: Test G Pre-Emergence Protocol; details: Setaria faberi, pre-emergence, 312 h, evaluated after 13 days; for pest or weed control at 15.625 g/ha: 15.625 g ai/ha; for pest or weed control at 15.625 g/ha / pest or weed control at 250 g/ha: read-out: Foxtail, Giant damage rating (100=total damage to plant; 0=no damage to plant); for pest or weed control at 62.5 g/ha: 62.5 g ai/ha, 100=total damage to plant, 0=no damage to plant, read-out: Foxtail, Giant damage rating; for pest or weed control at 250 g/ha: 250 g ai/ha
Method in brief: as §1

[6] = tested on: ivy-leaved morning glory (Ipomoea hederacea); assay: Test G Pre-Emergence Protocol; details: Ipomoea, pre-emergence, 312 h, evaluated after 13 days; for pest or weed control at 15.625 g/ha: 15.625 g ai/ha; for pest or weed control at 15.625 g/ha / pest or weed control at 250 g/ha: read-out: Morningglory, Ivy-leaved damage rating (100=total damage to plant; 0=no damage to plant); for pest or weed control at 62.5 g/ha: 62.5 g ai/ha, 100=total damage to plant, 0=no damage to plant, read-out: Morningglory, Ivy-leaved damage rating; for pest or weed control at 250 g/ha: 250 g ai/ha
Method in brief: as §1

[7] = tested on: barnyardgrass (Echinochloa crus-galli); assay: Test G Post-Emergence Protocol; details: Echinochloa crus-galli, post-emergence, 312 h, read-out: Barnyardgrass damage rating; for pest or weed control at 15.625 g/ha: 15.625 g ai/ha, evaluated after 13 days (100=total damage to plant; 0=no damage to plant); for pest or weed control at 62.5 g/ha: 62.5 g ai/ha; for pest or weed control at 62.5 g/ha / pest or weed control at 250 g/ha: evaluated after 13 days, 100=total damage to plant, 0=no damage to plant; for pest or weed control at 250 g/ha: 250 g ai/ha
Method in brief: (§2)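 Pot-grown seedlings, 8 days old, raised in a glasshouse at 24/16 °C day/night with 14 h light and 65% humidity, were sprayed post-emergence with test compound in acetone/water (50:50) plus 0.5% Tween 20 at 15.625, 62.5 or 250 g/ha. Damage was scored visually 13 days later on a 0–100 scale (100 = total damage).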

[8] = tested on: redroot pigweed (Amaranthus retroflexus); assay: Test G Post-Emergence Protocol; details: Amaranthus retroflexus, post-emergence, 312 h, read-out: Pigweed, Redroot damage rating; for pest or weed control at 15.625 g/ha: 15.625 g ai/ha, evaluated after 13 days (100=total damage to plant; 0=no damage to plant); for pest or weed control at 62.5 g/ha: 62.5 g ai/ha; for pest or weed control at 62.5 g/ha / pest or weed control at 250 g/ha: evaluated after 13 days, 100=total damage to plant, 0=no damage to plant; for pest or weed control at 250 g/ha: 250 g ai/ha
Method in brief: as §2

[9] = tested on: velvetleaf (Abutilon theophrasti); assay: Test G Post-Emergence Protocol; details: Abutilon theophrasti, post-emergence, 312 h, read-out: Velvetleaf damage rating; for pest or weed control at 15.625 g/ha: 15.625 g ai/ha, evaluated after 13 days (100=total damage to plant; 0=no damage to plant); for pest or weed control at 62.5 g/ha: 62.5 g ai/ha; for pest or weed control at 62.5 g/ha / pest or weed control at 250 g/ha: evaluated after 13 days, 100=total damage to plant, 0=no damage to plant; for pest or weed control at 250 g/ha: 250 g ai/ha
Method in brief: as §2

corn (Zea mays) [10] = assay: Test G Post-Emergence Protocol; details: Zea mays, post-emergence, 312 h, read-out: Corn damage rating; for plant injury at 15.625 g/ha: 15.625 g ai/ha, evaluated after 13 days (100=total damage to plant; 0=no damage to plant); for plant injury at 62.5 g/ha: 62.5 g ai/ha; for plant injury at 62.5 g/ha / plant injury at 250 g/ha: evaluated after 13 days, 100=total damage to plant, 0=no damage to plant; for plant injury at 250 g/ha: 250 g ai/ha
Method in brief: as §2

[11] = tested on: giant foxtail (Setaria faberi); assay: Test G Post-Emergence Protocol; details: Setaria faberi, post-emergence, 312 h, read-out: Foxtail, Giant damage rating; for pest or weed control at 15.625 g/ha: 15.625 g ai/ha, evaluated after 13 days (100=total damage to plant; 0=no damage to plant); for pest or weed control at 62.5 g/ha: 62.5 g ai/ha; for pest or weed control at 62.5 g/ha / pest or weed control at 250 g/ha: evaluated after 13 days, 100=total damage to plant, 0=no damage to plant; for pest or weed control at 250 g/ha: 250 g ai/ha
Method in brief: as §2

[12] = tested on: ivy-leaved morning glory (Ipomoea hederacea); assay: Test G Post-Emergence Protocol; details: Ipomoea, post-emergence, 312 h, read-out: Morningglory, Ivy-leaved damage rating; for pest or weed control at 15.625 g/ha: 15.625 g ai/ha, evaluated after 13 days (100=total damage to plant; 0=no damage to plant); for pest or weed control at 62.5 g/ha: 62.5 g ai/ha; for pest or weed control at 62.5 g/ha / pest or weed control at 250 g/ha: evaluated after 13 days, 100=total damage to plant, 0=no damage to plant; for pest or weed control at 250 g/ha: 250 g ai/ha
Method in brief: as §2

SMILES | pest or weed control at 15.625 g/ha [1] | pest or weed control at 62.5 g/ha [1] | pest or weed control at 250 g/ha [1] | pest or weed control at 15.625 g/ha [2] | pest or weed control at 62.5 g/ha [2] | pest or weed control at 250 g/ha [2] | pest or weed control at 15.625 g/ha [3] | pest or weed control at 62.5 g/ha [3] | pest or weed control at 250 g/ha [3] | plant injury at 15.625 g/ha (corn (Zea mays) [4]) | plant injury at 62.5 g/ha (corn (Zea mays) [4]) | plant injury at 250 g/ha (corn (Zea mays) [4]) | pest or weed control at 15.625 g/ha [5] | pest or weed control at 62.5 g/ha [5] | pest or weed control at 250 g/ha [5] | pest or weed control at 15.625 g/ha [6] | pest or weed control at 62.5 g/ha [6] | pest or weed control at 250 g/ha [6] | pest or weed control at 15.625 g/ha [7] | pest or weed control at 62.5 g/ha [7] | other results
CN1C[C@H](c2ccc(C(F)(F)F)cc2)[C@@H](C(=O)Nc2cnccc2C#N)C1=O (racemic) [Compound 1760] | 0% | 0% | 0% | 0% | 0% | 0% | 0% | 0% | 0% | 0% | 0% | 0% | 0% | 0% | 30% | 0% | 0% | 0% | 0% | 0% | pest or weed control at 250 g/ha [7]: 10%; pest or weed control at 15.625 g/ha [8]: 0%; pest or weed control at 62.5 g/ha [8]: 0%; pest or weed control at 250 g/ha [8]: 0%; pest or weed control at 15.625 g/ha [9]: 0%; pest or weed control at 62.5 g/ha [9]: 0%; pest or weed control at 250 g/ha [9]: 10%; plant injury at 15.625 g/ha (corn (Zea mays) [10]): 0%; plant injury at 62.5 g/ha (corn (Zea mays) [10]): 0%; plant injury at 250 g/ha (corn (Zea mays) [10]): 10%; pest or weed control at 15.625 g/ha [11]: 0%; pest or weed control at 62.5 g/ha [11]: 0%; pest or weed control at 250 g/ha [11]: 20%; pest or weed control at 15.625 g/ha [12]: 0%; pest or weed control at 62.5 g/ha [12]: 0%; pest or weed control at 250 g/ha [12]: 20%
C=Cc1cccc([C@@H]2CN(C)C(=O)[C@H]2C(=O)Nc2cccc(F)c2F)c1 (racemic) [Compound 1762] | 70% | 80% | 80% | 0% | 10% | 20% | 0% | 0% | 10% | 0% | 30% | 80% | 70% | 80% | 80% | 0% | 10% | 10% | 10% | 50% | pest or weed control at 250 g/ha [7]: 80%; pest or weed control at 15.625 g/ha [8]: 20%; pest or weed control at 62.5 g/ha [8]: 0%; pest or weed control at 250 g/ha [8]: 10%; pest or weed control at 15.625 g/ha [9]: 10%; pest or weed control at 62.5 g/ha [9]: 0%; pest or weed control at 250 g/ha [9]: 70%; plant injury at 15.625 g/ha (corn (Zea mays) [10]): 20%; plant injury at 62.5 g/ha (corn (Zea mays) [10]): 30%; plant injury at 250 g/ha (corn (Zea mays) [10]): 80%; pest or weed control at 15.625 g/ha [11]: 60%; pest or weed control at 62.5 g/ha [11]: 70%; pest or weed control at 250 g/ha [11]: 80%; pest or weed control at 15.625 g/ha [12]: 30%; pest or weed control at 62.5 g/ha [12]: 60%; pest or weed control at 250 g/ha [12]: 70%
